Literature values in US8168241B2, “Performance-enhancing dietary supplement” (Reliv International, Inc., priority 1998, dated 2012).

Key:
[1] = co-administration of piper nigrum extract; double blind studies
[2] = resulting from the ingestion of CLA

Row | Molecule | bioavailability [1] | reduction in body fat [2] [%]
1 | COC1=C(OC)C(=O)C(C/C=C(\C)CC/C=C(\C)CC/C=C(\C)CC/C=C(\C)CC/C=C(\C)CC/C=C(\C)CC/C=C(\C)CC/C=C(\C)CC/C=C(\C)CCC=C(C)C)=C(C)C1=O [coenzyme Q10] | significantly increased | –
2 | conjugated linoleic acid [CLA] | – | ≤ 20
